# Data taken from patent US12527819B2, “Method of preventing or treating viral infections” (Vector Vitale IP LLC, priority 2020, dated 2026).
# Where two headings read alike, the source gives them in different places.
# What was measured:
# in vitro = details: dog
# MDCK cells = tested on: MDCK cells; parameters: unit not given beside the values
# herpes simplex virus = experiment: Light water at various doses in mice infected intracerebrally with herpes virus; assay type: in vivo; details: 14 day; for Number of survived mice: 8 mice
# Procedure: Thus 50, 100 and 200 μl per mouse were administered to the infected animals.
# Groups consisting of 8 mice each were included in the experiment. […] The first administration of drugs was 24 hours later. After infection, there were 4 injections in total given every other day. Uninfected mice who received intracerebral injections of 30 μl of normal saline solution and the mice infected with HSV served as a control.
# MDBK cells = experiment: Mitotic regime of MDBK cells (cytological analysis); assay type: cell-based, bovine; details: dilution 1:1000; for Abnormal mitoses MDBK / Mitotic activity MDBK: relative to tissue control
# Procedure: Cytological analysis was performed after fixing the cells grown on cover-glasses in Shabadash's fluid (9 parts of copper nitrate in ethyl alcohol+1 part of formalin) for 30 minutes. The samples for the cytological analysis were stained using hematoxylin and eosin stain according to the generally accepted procedure.
# The mitotic index was calculated by analyzing 3000-10000 observed cells and was expressed in ppm (‰), which was the number of mitoses per 1000 cells. At the same time, the presence of pathological forms of mitosis was determined. A classification developed by V. N. Blyumkin was used for the analysis of pathological mitoses.
# The examination of cytological preparations was carried out with lenses ×40 and ×100, eyepiece ×10 in a Standard 20, Zeiss microscope.
# The experiment was conducted on the culture of MDBK cells that were treated with various options of the drugs. After 24 hours of contact the cells were fixed and cytological preparations were made using a standard technique.
# The culture of MDBK cells was selected for the study. The cells were treated with various drug options at concentrations nontoxic for cells. After 24 hours of contact, the cells were fixed and cytological preparations were prepared according to a conventional technique.
# herpes virus = experiment: Herpes virus meningoencephalitis model in mice, treatment regimen; details: dose 100 μg
# Procedure: The anti-herpes activity of zinc preparations was studied in the model of herpes virus meningoencephalitis in BALB/c mice (18-20 g in weight) with their intracerebral administration at a dose of 0.03 ml. In all the experimental groups, the drug was administered intraperitoneally at a dose of 0.1 ml. […] 4B—Zn-64 citrate in deuterium-depleted water—3 mg/ml • 2. 4B-2—Zn citrate in deuterium-depleted water—3 mg/ml • 3. 8B—Zn-64 glutamate in deuterium-depleted water—3 mg/ml • 4. 8B-2—Zn glutamate in deuterium-depleted water—3 mg/ml • 5. 9B—Zn-64 glycine-methionine in deuterium-depleted water—1 mg/ml • 6. 9B-2—Zn glycine-methionine in deuterium-depleted water—1 mg/ml
# The drug activity was evaluated by comparing the lethality in the experimental and control groups. The following factors were taken into account: • percentage of animals that died • multiplicity of protection (MP)—multiplicity of decrease in the number of dead mice in the experimental group compared to the control group • efficacy index (EI) of the drugs was determined using the following formula:
# [1] = tested on: influenza virus A/FM/1/47 (H1N1); assay type: in vivo, BALB/c mice; details: reference drug, 1000 μg/kg
# Procedure for Raji cells: A colorimetric assay using MTT 3-(4,5-dimethylthiazol-2-yl)-2,5-diphenyltetrazolium bromide (Sigma, USA) is based on the features of functioning of the dehydrogenase system of mitochondria of living cells which, under normal conditions, reprocess the artificial substrate MTT into a formazan that can be accounted spectrophotometrically.
# The MTT substrate (Sigma, USA) was dissolved in sterile phosphate buffered saline (pH 7.2) at room temperature to a concentration of 5 mg/ml. The filtered MTT solution in a volume of 20 μl was added to the wells of a 96-well plate and incubated with the cells for 2 to 4 hours at 37° C. After incubation, the medium was removed, and 150 μl of 96° ethanol was added to the cells to dissolve the formazan crystals. The optical density of the solutions was determined spectrophotometrically using a Multican FC reader (“Thermo Scientific” (USA)) at a wavelength of 540 nm.
# Cytotoxicity of the preparations under study was assessed using the MTT (3-(4,5-dimethylthiazol-2-yl)-2-5-diphenyltetrozolium bromide) assay, one of the commonly used colorimetric assay (Sigma USA). This assay determined cell viability through determination of mitochondrial function of cells by measuring activity of mitochondrial enzymes such as succinate dehydrogenase. In this assay, MTT is reduced to a purple formazan by NADH, which can be quantified spectrophotometrically. […] The purple color was measured at an excitation wavelength of 540 nm using a Thermo Scientific (USA) reader.
molecule,measurement,setting,value
"O=C(O)CC(O)(CC(=O)O)C(=O)O [No 8a, citric acid]",CC50 at 5 days,in vitro,14 µg/mL
same,CC50 as dilution,MDCK cells,1/160
"Nc1nc2c(ncn2COCCO)c(=O)[nH]1 [Aciclovir, Acyclovir, reference compound]",MP (%),"herpes simplex virus; reference, dose not given",25%
same,Number of survived mice,"herpes simplex virus; reference, dose not given",2
"Cc1ccc(S(=O)(=O)Nc2ccccc2NC(=O)c2ccccc2)cc1 [10-3, n-n-toluenesulfonyl-n-benzoyl-o-phenylenediamine]",viability of Raji cells (MTT reading),Raji cells; 0.9 μg/ml,1.287
same,viability of Raji cells (MTT reading),Raji cells; 9 μg/ml,1.235
same,viability of Raji cells (MTT reading),Raji cells; 18 μg/ml,0.1791
same,viability of Raji cells (MTT reading),Raji cells; 90 μg/ml,0.152
same,CC50,"Raji cells; Raji cells, MTT",33.46 µg/mL
same,Abnormal mitoses in %,"MDBK cells; MDBK, 24 h",25.0%
same,Mitotic activity in %,"MDBK cells; MDBK, 24 h",16.0%
same,Abnormal mitoses MDBK,MDBK cells,1.12
same,Mitotic activity MDBK,MDBK cells,0.88
"N[C@@H](CCC(=O)O)C(=O)O [10a, glutamic acid]",CC50 as dilution,MDCK cells,1:160
same,Abnormal mitoses in %,"MDBK cells; MDBK, 24 h",22.2%
same,Abnormal mitoses MDBK,MDBK cells,1.0
same,Mitotic activity MDBK,MDBK cells,0.77
Deuterium-depleted water,MP (%),herpes simplex virus; 50 μl/mouse,38%
same,Number of survived mice,"herpes simplex virus; 50 μl/mouse, 4 injections",3
same,MP (%),herpes simplex virus; 100 μl/mouse,50%
same,Number of survived mice,"herpes simplex virus; 100 μl/mouse, 4 injections",4
same,MP (%),herpes simplex virus; 200 μl/mouse,75%
same,Number of survived mice,"herpes simplex virus; 200 μl/mouse, 4 injections",6
same,EI (efficacy index),herpes virus,50.0
same,Inhibition of infectious titer in cerebral tissue in lg TCD50,herpes virus,2.0 lg TCD50
same,MP (multiplicity of protection),herpes virus,2.0
same,"Number of mice that died, %",herpes virus; 10 mice,50.0%
same,"Number of mice that died, total",herpes virus; 10 mice,5
"N[C@@H](CC(=O)O)C(=O)O [9a, aspartic acid]",CC50 at 5 days,in vitro,42 µg/mL
same,CC50 as dilution,MDCK cells,1/80
CCOC(=O)C1=C[C@@H](OC(CC)CC)[C@H](NC(C)=O)[C@@H](N)C1 [Tamiflu],EI (efficacy index),[1],70
same,Inhibition of infectious titer in cerebral tissue in lg TCD50,[1],2.5 lg TCD50
same,"Number of mice that died, %",[1]; 10 mice,30.0%
same,"Number of mice that died, total",[1]; 10 mice,3
